Data from US20120142621A1 (priority 2010, published 2012).

Key:
[1] = tested on: septic peritonitis via CLP; experiment: CLP model of intra-abdominal sepsis: survival / mortality; format: in vivo, rat; conditions: same CLP model, FIG. 4
Description: Effect of Glyco 23 on mortality in intra-abdominal sepsis. […] The CLP model was chosen for its reproducible mortality rates and its ability to mimic fecal peritonitis.
This dose is well below the LD50 (6-7 gm/kg) of naturally occurring sophorolipids in rodents.^(40,41). Doses were given at the end of the surgery, and animals were followed for 36 hours. Kaplan Meier statistics were performed on survival.

[2] = tested on: septic peritonitis via CLP; experiment: Survival, WBC and blood culture at 3 hours and 24 hours post insult (CLP); format: in vivo, rat; conditions: 5 mg/kg IV at end of surgery, n=6/group; for Survival 24 Hs. post insult: % printed only over the 3 hours column
Description: Survival at 3 hours and 24 hours post insult. […] Doses were given at the end of the surgery, and animals were followed for 24 hours (Table 1)

[3] = tested on: standard bacterial isolates; experiment: Antibiotic activity, broth microdilution method; format: cell-based; conditions: clinically relevant concentrations
[4] = tested on: galactosamine-sensitized LPS endotoxic shock; experiment: Galactosamine-sensitized LPS endotoxic shock mortality; format: in vivo, mouse
Description: Therefore, treatment after 2 hr can be compared to treatment after 24 hrs or later in conventional models.

[5] = tested on: IL-1; experiment: Cytokine responses in vitro: IL-1; format: cell-based; conditions: compared with the natural mixture responses, FIG. 5
[6] = tested on: IL-8; experiment: Cytokine responses in vitro: IL-8; format: cell-based; conditions: compared with the natural mixture responses, FIG. 5
[7] = tested on: IL-1β; experiment: RNase Protection Assay, splenocyte mRNA of CLP-septic rats: IL-1β; format: in vivo, rat; conditions: 5 mg/kg; splenocytes at 6 hrs; percent control (CLP+vehicle) +/- SEM; P<0.05
Description: (§1) Data are expressed as percent control (CLP+vehicle)+/−SEM. Treatment groups were significant (p<0.05) compared with control using student's T test. CLP=cecal ligation and puncture; SL=sophorolipid

[8] = tested on: TGF-β1; experiment: RNase Protection Assay, splenocyte mRNA of CLP-septic rats: TGF-β1; format: in vivo, rat; conditions: splenocytes at 6 hrs; percent control (CLP+vehicle) +/- SEM; P<0.05
Description: as §1

[9] = tested on: LPS-induced immunologically relevant genes in mouse macrophages; experiment: Microarray analysis of macrophages cultured with LPS +/- Glyco 23; format: cell-based; conditions: Affymetrix Murine Genome Array U74Av2; LPS maximum set as 100%
Description: The maximum level of each gene expression attained in the presence of LPS was set as 100%. […] The analysis was performed using the Affymetrix GeneChip® Murine Genome Array U74Av2 probe array.

[10] = target: T1, CD14 (Mus musculus, UniProt P10810); experiment: Macrophage surface expression by antibody staining: CD14; format: cell-based; conditions: RAW264.7 macrophages, 10 μg/ml, 30 min
T1 construct: endogenous in cells; host or cells: RAW264.7 macrophages
T1 sequence (P10810 16-336): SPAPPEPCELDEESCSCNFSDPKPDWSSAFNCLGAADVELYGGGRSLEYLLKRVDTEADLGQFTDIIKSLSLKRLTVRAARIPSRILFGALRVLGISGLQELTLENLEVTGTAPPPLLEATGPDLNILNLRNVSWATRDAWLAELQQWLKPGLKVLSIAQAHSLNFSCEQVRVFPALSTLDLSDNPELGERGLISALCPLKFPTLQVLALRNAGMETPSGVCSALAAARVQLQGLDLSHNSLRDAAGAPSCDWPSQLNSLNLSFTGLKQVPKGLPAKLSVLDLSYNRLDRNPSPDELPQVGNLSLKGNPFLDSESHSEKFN
Description: (§2) Effects of Glyco 23 on TLR pathway: We studied expression of macrophage CD14 and TLR4 in an in vitro model system using cultured macrophages to relate Glyco 23 mechanism of action to events upstream of cytokine gene expression. […] This observation is significant in light of very recent studies showing that CD14 inhibition using anti-CD14 antibodies in an in vivo pig model of gram-negative sepsis and endotoxemia.^(42)
(§3) Macrophages (RAW264.7) were incubated in the absence or presence of sophorolipids (SL, 10 μg/ml, 30 min, room temperature), washed with phosphate-buffered saline (PBS), and anti-CD 14 or anti-TLR4 antibodies (Santa Cruz Biotechnology, 10 μg/ml, 30 min, room temperature). The cells were then washed with PBS and staining was performed using ABC staining system (Santa Cruz Biotechnology), according to manufacturer's instructions. The cells were then fixed with 1% formaldehyde and examined microscopically. A total of 200 cells were scored in triplicate for each determination, and results expressed as % of total cells counted.

[11] = target: T2, TLR4 (Mus musculus, UniProt Q9QUK6); experiment: Macrophage surface expression by antibody staining: TLR4; format: cell-based; conditions: RAW264.7 macrophages, 10 μg/ml, 30 min
T2 construct: endogenous in cells; host or cells: RAW264.7 macrophages
T2 sequence (Q9QUK6 26-835): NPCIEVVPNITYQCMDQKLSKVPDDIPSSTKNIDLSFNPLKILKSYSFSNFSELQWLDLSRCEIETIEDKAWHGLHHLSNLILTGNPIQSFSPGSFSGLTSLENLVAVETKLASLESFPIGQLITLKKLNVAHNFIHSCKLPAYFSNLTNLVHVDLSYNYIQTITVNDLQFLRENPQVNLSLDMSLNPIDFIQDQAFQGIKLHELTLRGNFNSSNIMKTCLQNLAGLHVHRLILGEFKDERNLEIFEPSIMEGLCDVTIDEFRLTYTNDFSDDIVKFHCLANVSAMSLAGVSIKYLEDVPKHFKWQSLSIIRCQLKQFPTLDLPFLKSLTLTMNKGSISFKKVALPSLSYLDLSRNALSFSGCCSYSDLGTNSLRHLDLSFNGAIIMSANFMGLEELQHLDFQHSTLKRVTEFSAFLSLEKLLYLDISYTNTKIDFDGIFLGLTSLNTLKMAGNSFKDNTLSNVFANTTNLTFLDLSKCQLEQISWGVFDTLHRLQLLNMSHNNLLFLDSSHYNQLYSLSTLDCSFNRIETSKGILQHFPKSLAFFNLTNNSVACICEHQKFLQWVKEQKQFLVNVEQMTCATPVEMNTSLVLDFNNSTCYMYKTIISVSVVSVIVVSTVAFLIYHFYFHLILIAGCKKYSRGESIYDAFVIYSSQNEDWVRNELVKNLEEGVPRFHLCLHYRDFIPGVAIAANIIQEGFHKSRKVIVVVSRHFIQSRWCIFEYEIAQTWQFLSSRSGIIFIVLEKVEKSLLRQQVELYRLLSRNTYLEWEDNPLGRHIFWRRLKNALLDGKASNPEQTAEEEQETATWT
Description: as §2, §3

[12] = Dosage finding after CLP, tail vein IV; format: in vivo; conditions: 24 mg/kg IV in 50% ethanol-PBS; possibly due to ethanol concentration
Description: Dosage To determine the optimum dose that can be administered to the rats, 3 different doses of Glyco 23, 6 mg/kg, 12 mg/kg and 24 mg/kg of rat body weight (in 50% ethanol-PBS) was administered using tail vein IV to 9 rats following the Cecal Ligation and Puncture (CLP). Control rats (n=3) were injected with 0.5 ml of PBS. […] Rats that received […] and 12 mg/kg doses survived after 24 hours. Blood was obtained before they were sacrificed the next day.

[13] = tested on: Interleukin-6 (IL-6); experiment: Serum IL-6 by ELISA 3 hrs after CLP; format: in vivo, rat; conditions: natural mixture versus free acid form, FIG. 10
Description: Serum samples were obtained from rats (N=5 animals/group) 3 hrs. after (CLP) to establish polymicrobial sepsis, and intravenous injection of saline (control), sophorolipids-natural mixture (SL) or Glyco 23. Serum concentrations of Interleukin-6 (IL-6) were determined using commercial ELISA tests according to manufacturer's instructions. Results were evaluated for statistical significance using ANOVA.

| Compound | Mortality rate reduced compared to vehicle [1] [%] | Survival % 3 hours post insult [2] [%] | Survival 24 Hs. post insult [2] [%] | antibiotic activity [3] | Mortality (%) ([4]; LPS at 0 hs, Glyco at 0 hs, n = 9) | Mortality (%) ([4]; LPS at 0 hs, Glyco at 1.5 hs, n = 10) | Mortality (%) ([4]; LPS at 1.5 hs, Glyco at 0 hs, n = 10) | decrease of endotoxin mortality ([4]; administered 2 hr after insult, versus positive control mice) [%] | IL-1 cytokine response suppression [5] | IL-8 cytokine response suppression [6] | reduction in IL-1β expression (mRNA) [7] | increased expression of TGF-β1 (mRNA) [8] [%] | expression of genes upregulated more than 5 fold by LPS [9] | surface expression of CD14 [10] | surface expression of TLR4 [11] | time to death of all rats [12] [h] | difference between the inhibitory effects on serum IL-6 [13] |
| --- | --- | --- | --- | --- | --- | --- | --- | --- | --- | --- | --- | --- | --- | --- | --- | --- | --- |
| CCOC(=O)CCCCCCC/C=C\CCCCCCC(C)OC1O[C@H](CO)[C@@H](O)[C@H](O)[C@H]1OC1O[C@H](CO)[C@@H](O)[C@H](O)[C@H]1O (relative stereo) [Glyco 23, Ethyl-17-L-[(2′-O-D-glucopyranosyl-D-glucopyranosyl)-oxy]-cis-9-octadecenoate] | 37 | 100 | 100 | no significant antibiotic activity | 89 | 30 | 80 | 56 | decreased | decreased | 42.5%±4.7% | 11.7±1.5 | suppressed | interferes with surface expression | interferes with surface expression | ≤ 2 |  |
| CC(CCCCCC/C=C\CCCCCCCC(=O)O)O[C@@H]1O[C@H](CO)[C@@H](O)[C@H](O)[C@H]1O[C@@H]1O[C@H](CO)[C@@H](O)[C@H](O)[C@H]1O (relative stereo) [Sohorolipid Free Acid derivative, 17-L-[(2′-O-b-D-glucopyranosyl-b-D-glucopyranosyl)-oxy]-cis-9-octadecenoatede-acetylated free acid] |  | 100 | 90 |  |  |  |  |  |  |  |  |  |  |  |  |  | No significant difference |
| Lipid A [reference compound] |  | 50 | 32 |  |  |  |  |  |  |  |  |  |  |  |  |  |  |
